Calls of active or inactive are those of the source. The rule behind the calls is not given here.
System: rodent lifetime carcinogenesis bioassay, tumor incidence TD50
Experiment: chronic cancer bioassays in animals – CPDB, compiled studies (AID 1745844)

## NC(=O)c1cccnc1
mouse, strain Swiss albino, females, in drinking water, site: lung, lesion: several types, types named in the paper, dosed 113 weeks, study length 113 weeks
  carcinogen call: negative (inactive)
mouse, strain Swiss albino, males, in drinking water, site: lung, lesion: several types, types named in the paper, dosed 109 weeks, study length 109 weeks
  carcinogen call: negative (inactive)

## CC(O)C(=O)O (stereo not given)
rat, strain F344/DuCrj, females, in drinking water, site: any site (literature study), lesion: one or several types, types not named, dosed 104 weeks, study length 113 weeks
  TD50: 103000 mg/kg/day
rat, strain F344/DuCrj, males, in drinking water, site: liver, lesion: hepatocellular adenoma, dosed 104 weeks, study length 113 weeks
  TD50: 54500 mg/kg/day

## O=[N+]([O-])c1ccc2c3c(cccc13)CC2
hamster, strain Syrian Golden, females, in feed, site: bile duct, lesion: cholangioma, dosed 26 weeks, study length 71 weeks
  TD50: 354 mg/kg/day
mouse, strain B6C3F1, females, in feed, site: any site (literature study), lesion: several types, types named in the paper, dosed 78 weeks, study length 96 weeks
  TD50: 90.4 mg/kg/day
mouse, strain B6C3F1, females, in feed, site: liver + ovary, lesion: hepatocellular carcinoma + granulosa-cell tumor + luteoma + tubular adenoma, dosed 78 weeks, study length 96 weeks
  TD50: 45.3 mg/kg/day
mouse, strain B6C3F1, females, in feed, site: liver, lesion: hepatocellular adenoma + hepatocellular carcinoma + neoplastic nodule, dosed 78 weeks, study length 96 weeks
  TD50: 45.8 mg/kg/day
mouse, strain B6C3F1, females, in feed, site: liver, lesion: hepatocellular carcinoma, dosed 78 weeks, study length 96 weeks
  TD50: 45.8 mg/kg/day
mouse, strain B6C3F1, females, in feed, site: lung, lesion: alveolar/bronchiolar adenoma + alveolar/bronchiolar carcinoma, dosed 78 weeks, study length 96 weeks
  TD50: 1320 mg/kg/day
mouse, strain B6C3F1, females, in feed, site: ovary, lesion: granulosa-cell tumor + luteoma + tubular adenoma, dosed 78 weeks, study length 96 weeks
  TD50: 217 mg/kg/day
mouse, strain B6C3F1, females, in feed, site: ovary, lesion: tubular adenoma, dosed 78 weeks, study length 96 weeks
  TD50: 395 mg/kg/day
mouse, strain B6C3F1, males, in feed, site: any site (literature study), lesion: several types, types named in the paper, dosed 78 weeks, study length 95 weeks
  carcinogen call: negative (inactive)
rat, strain Fischer 344, females, in feed, site: any site (literature study), lesion: several types, types named in the paper, dosed 78 weeks, study length 101 weeks
  TD50: 6.44 mg/kg/day
rat, strain Fischer 344, females, in feed, site: clitoral gland + ear canal + lung + mammary gland, lesion: carcinoma, NOS + carcinosarcoma + ceruminous carcinoma + squamous-cell carcinoma + alveolar/bronchiolar adenoma + alveolar/bronchi, dosed 78 weeks, study length 101 weeks
  TD50: 5.98 mg/kg/day
rat, strain Fischer 344, females, in feed, site: clitoral gland, lesion: carcinoma, NOS, dosed 78 weeks, study length 101 weeks
  TD50: 52.2 mg/kg/day
rat, strain Fischer 344, females, in feed, site: ear canal, lesion: carcinosarcoma + ceruminous carcinoma + squamous-cell carcinoma, dosed 78 weeks, study length 101 weeks
  TD50: 14.9 mg/kg/day
rat, strain Fischer 344, females, in feed, site: ear canal, lesion: ceruminous carcinoma, dosed 78 weeks, study length 101 weeks
  TD50: 17.4 mg/kg/day
rat, strain Fischer 344, females, in feed, site: ear canal, lesion: squamous-cell carcinoma, dosed 78 weeks, study length 101 weeks
  TD50: 90.5 mg/kg/day
rat, strain Fischer 344, females, in feed, site: lung, lesion: alveolar/bronchiolar adenoma + alveolar/bronchiolar carcinoma, dosed 78 weeks, study length 101 weeks
  TD50: 9.63 mg/kg/day
rat, strain Fischer 344, females, in feed, site: mammary gland, lesion: adenocarcinoma, NOS + papillary cystadenocarcinoma, NOS, dosed 78 weeks, study length 101 weeks
  TD50: 77.9 mg/kg/day
rat, strain Fischer 344, females, in feed, site: mammary gland, lesion: adenocarcinoma, NOS, dosed 78 weeks, study length 101 weeks
  TD50: 81.7 mg/kg/day
rat, strain Fischer 344, males, in feed, site: any site (literature study), lesion: several types, types named in the paper, dosed 74 weeks, study length 101 weeks
  TD50: 5.58 mg/kg/day
rat, strain Fischer 344, males, in feed, site: ear canal + lung, lesion: ceruminous carcinoma + squamous-cell carcinoma + alveolar/bronchiolar adenoma + alveolar/bronchiolar carcinoma, dosed 74 weeks, study length 101 weeks
  TD50: 6.45 mg/kg/day
rat, strain Fischer 344, males, in feed, site: ear canal, lesion: ceruminous carcinoma + squamous-cell carcinoma, dosed 74 weeks, study length 101 weeks
  TD50: 7.88 mg/kg/day
rat, strain Fischer 344, males, in feed, site: ear canal, lesion: ceruminous carcinoma, dosed 74 weeks, study length 101 weeks
  TD50: 8.92 mg/kg/day
rat, strain Fischer 344, males, in feed, site: ear canal, lesion: squamous-cell carcinoma, dosed 74 weeks, study length 101 weeks
  TD50: 68.2 mg/kg/day
rat, strain Fischer 344, males, in feed, site: kidney, lesion: tubular-cell adenoma + tubular-cell adenocarcinoma, dosed 74 weeks, study length 101 weeks
  TD50: 42.9 mg/kg/day
rat, strain Fischer 344, males, in feed, site: liver, lesion: hepatocellular adenoma + hepatocellular carcinoma + neoplastic nodule, dosed 74 weeks, study length 101 weeks
  TD50: 71.4 mg/kg/day
rat, strain Fischer 344, males, in feed, site: lung, lesion: alveolar/bronchiolar adenoma + alveolar/bronchiolar carcinoma, dosed 74 weeks, study length 101 weeks
  TD50: 29.9 mg/kg/day
rat, strain Fischer 344, males, in feed, site: lung, lesion: alveolar/bronchiolar carcinoma, dosed 74 weeks, study length 101 weeks
  TD50: 35.1 mg/kg/day
rat, strain Fischer 344, males, in feed, site: thyroid gland, lesion: follicular-cell adenoma + papillary adenoma, dosed 74 weeks, study length 101 weeks
  TD50: 58.5 mg/kg/day
rat, strain Fischer 344, males, in feed, site: thyroid gland, lesion: follicular-cell carcinoma + papillary adenocarcinoma, dosed 74 weeks, study length 101 weeks
  TD50: 37.7 mg/kg/day

## CN(C)c1ccc(C(=N)c2ccc(N(C)C)cc2)cc1
mouse, strain CBA, females, in feed, site: liver, lesion: hepatoma, dosed 52 weeks, study length 99 weeks
  TD50: 67.7 mg/kg/day
mouse, strain CBA, males, in feed, site: liver, lesion: hepatoma, dosed 52 weeks, study length 79 weeks
  TD50: 77.5 mg/kg/day
mouse, strain albino, females, in feed, site: liver, lesion: hepatoma, dosed 52 weeks, study length 79 weeks
  TD50: 94.3 mg/kg/day
mouse, strain albino, males, in feed, site: liver, lesion: hepatoma, dosed 52 weeks, study length 84 weeks
  TD50: 39.2 mg/kg/day
rat, strain Wilmslow Wistar, males, in feed, site: liver, lesion: hepatoma, dosed 87 weeks, study length 125 weeks
  TD50: 11 mg/kg/day

## CCCCN(CCCC)C(=S)[S-].CCCCN(CCCC)C(=S)[S-].[Zn+2]
mouse, strain B6AKF1, females, oral dosing, site: any site (literature study), lesion: several types, types named in the paper, dosed 76 weeks, study length 76 weeks
  TD50: 2330 mg/kg/day (inactive)
mouse, strain B6AKF1, females, oral dosing, site: liver, lesion: hepatoma, dosed 76 weeks, study length 76 weeks
  carcinogen call: negative (inactive)
mouse, strain B6AKF1, females, oral dosing, site: lung, lesion: adenoma, dosed 76 weeks, study length 76 weeks
  TD50: 1090 mg/kg/day (inactive)
mouse, strain B6AKF1, males, oral dosing, site: any site (literature study), lesion: several types, types named in the paper, dosed 76 weeks, study length 76 weeks
  carcinogen call: negative (inactive)
mouse, strain B6AKF1, males, oral dosing, site: liver, lesion: hepatoma, dosed 76 weeks, study length 76 weeks
  carcinogen call: negative (inactive)
mouse, strain B6AKF1, males, oral dosing, site: lung, lesion: adenoma, dosed 76 weeks, study length 76 weeks
  carcinogen call: negative (inactive)
mouse, strain B6C3F1, females, oral dosing, site: any site (literature study), lesion: several types, types named in the paper, dosed 76 weeks, study length 76 weeks
  TD50: 731 mg/kg/day (inactive)
mouse, strain B6C3F1, females, oral dosing, site: liver, lesion: hepatoma, dosed 76 weeks, study length 76 weeks
  carcinogen call: negative (inactive)
mouse, strain B6C3F1, females, oral dosing, site: lung, lesion: adenoma, dosed 76 weeks, study length 76 weeks
  TD50: 2330 mg/kg/day (inactive)
mouse, strain B6C3F1, males, oral dosing, site: any site (literature study), lesion: several types, types named in the paper, dosed 76 weeks, study length 76 weeks
  TD50: 252 mg/kg/day (inactive)
mouse, strain B6C3F1, males, oral dosing, site: liver, lesion: hepatoma, dosed 76 weeks, study length 76 weeks
  TD50: 680 mg/kg/day (inactive)
mouse, strain B6C3F1, males, oral dosing, site: lung, lesion: adenoma, dosed 76 weeks, study length 76 weeks
  TD50: 1050 mg/kg/day (inactive)
